Experimental data as given in patent publication US20120095024A1, “TOLUIDINE SULFONAMIDES AND THEIR USE” (Elara Pharmaceuticals GmbH, priority 2008, published 2012).

What follows are compounds tested on MCF7 cells (assay: Cell proliferation assay (ATPlite), MCF-7). Details: Homo sapiens, inhibition of cell proliferation, 72 h.
Assay type: cell-based, human
Experimental: MCF-7 human breast adenocarcinoma cells and HL-60 acute promyelocytic leukaemia cells were obtained from ATCC (LGC Promochem). HG-1 multiple myeloma cells were obtained from Dr. D. Hose (DKFZ Heidelberg). The CellSensor® HRE-bla HCT116 cell line (colorectal carcinoma) was obtained from Invitrogen.
Cells were grown under humidified 95% air, 5% CO2 at 37° C. in Dulbecco's modified Eagle's medium (DMEM: MCF-7) or RPMI 1640 medium (RPMI: HL-60, HG-1) supplemented with 10% fetal bovine serum (FBS), 100 U/ml penicillin and 100 μg/ml streptomycin, 2 mM L-glutamine, and 2 ng/ml IL-6 (for the HG-1 cell line only). The HCT116 cell line was grown under the same atmospheric conditions in McCoy's 5A medium supplemented with 10% FBS and penicillin/streptomycin as above, in addition to blasticidin as a selection marker at a final concentration of 5 μg/ml.
Cell proliferation experiments were carried out in 96-well tissue culture plates with seeding of 2000 cells/well (MCF-7) or 1000 cells/well (HL-60, HG-1) in 100 μl of the relevant medium. Cells were subsequently incubated under the conditions mentioned for 24 h prior to addition of compounds.
For the determination of compound EC50 values, 10 μl compounds at 11× concentrations in 5.5% DMSO were added to the wells at various concentrations yielding a final constant percentage of 0.5% DMSO at the desired 1× compound concentration. As a positive control, cells were treated with 5.5% DMSO. The cells were then incubated for a further 72 h prior to the measurement.
To determine the degree of inhibition of cell proliferation, cells were treated with ATPlite solution according to the manufacturer's instructions (PerkinElmer, ATPlite 1-step Luminescence ATP Detection Assay System) and luciferase readout measured on an Envision HTS multilabel plate reader (PerkinElmer) in luminescence mode according to established protocols. Raw data were imported into an ActivityBase database (IDBS, ID Business Solutions) and EC50 values calculated using the IDBS program ActivityBase XE. Table 2A and 2B show the IC50 values obtained in the above-outlined cell proliferation assay for exemplary compounds of the invention.

Row | SMILES | EC50
1 | CC(=O)c1ccc(-c2ccc(C)c(NS(=O)(=O)c3ccc(C)cc3)c2)nc1 [Example 54, N-[5-(5-Acetyl-pyridin-2-yl)-2-methyl-phenyl]-4-methyl-benzenesulfonamide] | 1 to 10 µM
2 | Cc1ccc(S(=O)(=O)Nc2cc(-c3ccc([N+](=O)[O-])cn3)ccc2C)cc1 [Example 55, 4-Methyl-N-[2-methyl-5-(5-nitro-pyridin-2-yl)-phenyl]-benzenesulfonamide] | < 0.5 µM
3 | COc1ccc(S(=O)(=O)Nc2cc(-c3cccc(C#N)c3)ccc2C)cc1 [Example 57, N-(3′-Cyano-4-methyl-biphenyl-3-yl)-4-methoxy-benzenesulfonamide] | 0.5 to 1 µM
4 | COc1ccc(S(=O)(=O)Nc2cc(-c3ccccc3C#N)ccc2C)cc1 [Example 58, N-(2′-Cyano-4-methyl-biphenyl-3-yl)-4-methoxy-benzenesulfonamide] | 0.5 to 1 µM
5 | Cc1ccc(S(=O)(=O)Nc2cc(-c3sccc3C#N)ccc2C)cc1 [Example 59, N-[5-(3-Cyano-thiophen-2-yl)-2-methyl-phenyl]-4-methyl-benzenesulfonamide] | 0.5 to 1 µM
6 | COc1ccc(S(=O)(=O)Nc2cc(-c3ccc(C#N)nc3)ccc2C)cc1 [Example 61, N-[5-(6-Cyano-pyridin-3-yl)-2-methyl-phenyl]-4-methoxy-benzenesulfonamide] | < 0.5 µM
7 | COc1ccc(S(=O)(=O)Nc2cc(-c3ccsc3C#N)ccc2C)cc1 [Example 62, N-[5-(2-Cyano-thiophen-3-yl)-2-methyl-phenyl]-4-methoxy-benzenesulfonamide] | < 0.5 µM
8 | Cc1ccc(S(=O)(=O)Nc2cc(-c3ncc(C#N)cn3)ccc2C)cc1 [Example 64, N-[5-(5-Cyano-pyrimidin-2-yl)-2-methyl-phenyl]-4-methyl-benzenesulfonamide] | 0.5 to 1 µM
9 | COc1ccc(S(=O)(=O)Nc2cc(-c3ccc(C#N)c(C#N)c3)ccc2C)cc1 [Example 65, N-(3′,4′-Dicyano-4-methyl-biphenyl-3-yl)-4-methoxy-benzenesulfonamide] | < 0.5 µM
10 | Cc1ccc(S(=O)(=O)Nc2cc(-c3cccc(N(C)C)n3)ccc2C)cc1 [Example 66, N-[5-(6-Dimethylamino-pyridin-2-yl)-2-methyl-phenyl]-4-methyl-benzenesulfonamide] | 0.5 to 1 µM
11 | Cc1ccc(S(=O)(=O)Nc2cc(-c3cc(C)cc(C)n3)ccc2C)cc1 [Example 67, N-[5-(4,6-Dimethyl-pyridin-2-yl)-2-methyl-phenyl]-4-methyl-benzenesulfonamide] | 1 to 10 µM
12 | Cc1ccc(S(=O)(=O)Nc2cc(-c3cscc3C#N)ccc2C)cc1 [Example 69, N-[5-(4-Cyano-thiophen-3-yl)-2-methyl-phenyl]-4-methyl-benzenesulfonamide] | < 0.5 µM
13 | COc1ccc(S(=O)(=O)Nc2cc(-c3ccnc(C#N)c3)ccc2C)cc1 [Example 75, N-[5-(2-Cyano-pyridin-4-yl)-2-methyl-phenyl]-4-methoxy-benzenesulfonamide] | 0.5 to 1 µM
14 | Cc1ccc(S(=O)(=O)Nc2cc(-c3ccc([N+](=O)[O-])o3)ccc2C)cc1 [Example 76, 4-Methyl-N-[2-methyl-5-(5-nitro-furan-2-yl)-phenyl]-benzenesulfonamide] | < 0.5 µM
15 | Cc1ccc(-c2ccc(C#N)s2)cc1NS(=O)(=O)c1ccc(Cl)cc1 [Example 77, 4-Chloro-N-[5-(5-cyano-thiophen-2-yl)-2-methyl-phenyl]-benzenesulfonamide] | < 0.5 µM
16 | Cc1ccc(-c2ccc(C#N)s2)cc1NS(=O)(=O)c1ccc(C(F)(F)F)cc1 [Example 78, N-[5-(5-Cyano-thiophen-2-yl)-2-methyl-phenyl]-4-trifluoromethyl-benzenesulfonamide] | 0.5 to 1 µM
17 | Cc1ccc(-c2ccc(C#N)s2)cc1NS(=O)(=O)c1ccc(OC(F)(F)F)cc1 [Example 79, N-[5-(5-Cyano-thiophen-2-yl)-2-methyl-phenyl]-4-trifluoromethoxy-benzenesulfonamide] | 1 to 10 µM
18 | COc1ccc(-c2ccc(C)c(NS(=O)(=O)c3ccc(OC)cc3)c2)cc1 [Example 81, 4-Methoxy-N-(4′-methoxy-4-methyl-biphenyl-3-yl)-benzenesulfonamide] | < 0.5 µM
19 | COc1ccc(S(=O)(=O)Nc2cc(-c3ccc(SC)cc3)ccc2C)cc1 [Example 82, 4-Methoxy-N-(4-methyl-4′-methylsulfanyl-biphenyl-3-yl)-benzenesulfonamide] | 1 to 10 µM

Row | SMILES | EC50
20 | COc1ccc(S(=O)(=O)Nc2cc(-c3ccc(OC(F)(F)F)cc3)ccc2C)cc1 [Example 83, 4-Methoxy-N-(4-methyl-4′-trifluoromethoxy-biphenyl-3-yl)-benzenesulfonamide] | 1 to 10 µM
21 | C#Cc1ccc(-c2ccc(C)c(NS(=O)(=O)c3ccc(C)cc3)c2)cc1 [Example 84, N-(4′-Ethynyl-4-methyl-biphenyl-3-yl)-4-methyl-benzenesulfonamide] | 0.5 to 1 µM
22 | COc1ccc(S(=O)(=O)Nc2cc(-c3ccc(C#N)cc3)ccc2C)cc1F [Example 85, N-(4′-Cyano-4-methyl-biphenyl-3-yl)-3-fluoro-4-methoxy-benzenesulfonamide] | < 0.5 µM
23 | Cc1ccc(-c2ccc(C#N)cc2)cc1NS(=O)(=O)c1ccc([N+](=O)[O-])cc1 [Example 86, N-(4′-Cyano-4-methyl-biphenyl-3-yl)-4-nitro-benzenesulfonamide] | 1 to 10 µM
24 | Cc1ccc(-c2ccc(C#N)cc2)cc1NS(=O)(=O)c1ccc(N)cc1 [Example 87, 4-Amino-N-(4′-cyano-4-methyl-biphenyl-3-yl)-benzenesulfonamide] | < 0.5 µM
25 | Cc1ccc(S(=O)(=O)Nc2cc(-c3ccc(C#N)cc3)ccc2C)cc1F [Example 88, N-(4′-Cyano-4-methyl-biphenyl-3-yl)-3-fluoro-4-methyl-benzenesulfonamide] | < 0.5 µM
26 | COc1ccc(S(=O)(=O)Nc2cc(-c3ccc(C#N)c(OC)c3)ccc2C)cc1 [Example 89, N-(4′-Cyano-3′-methoxy-4-methyl-biphenyl-3-yl)-4-methoxy-benzenesulfonamide] | < 0.5 µM
27 | COc1ccc(S(=O)(=O)Nc2cc(-c3ccc(C#N)c(O)c3)ccc2C)cc1 [Example 90, N-(4′-Cyano-3′-hydroxy-4-methyl-biphenyl-3-yl)-4-methoxy-benzenesulfonamide] | < 0.5 µM
28 | Cc1ccc(-c2ccc(C#N)s2)cc1NS(=O)(=O)c1ccc(F)cc1 [Example 91, N-[5-(5-Cyano-thiophen-2-yl)-2-methyl-phenyl]-4-fluoro-benzenesulfonamide] | 0.5 to 1 µM
29 | COc1ccc(S(=O)(=O)Nc2cc(-c3ccc(C#N)s3)ccc2C)cc1F [Example 92, N-[5-(5-Cyano-thiophen-2-yl)-2-methyl-phenyl]-3-fluoro-4-methoxy-benzenesulfonamide] | < 0.5 µM
30 | Cc1ccc(-c2ccc(C#N)s2)cc1NS(=O)(=O)c1ccc(N)cc1 [Example 93, 4-Amino-N-[5-(5-cyano-thiophen-2-yl)-2-methyl-phenyl]-benzenesulfonamide] | < 0.5 µM
31 | Cc1ccc(S(=O)(=O)Nc2cc(C)cc(-c3csc(C)c3)c2)cc1 [Example 94, 4-Methyl-N-[3-methyl-5-(5-methyl-thiophen-3-yl)-phenyl]-benzenesulfonamide] | < 0.5 µM
32 | Cc1ccc(-c2csc(C#N)c2)cc1NS(=O)(=O)c1ccc([N+](=O)[O-])cc1 [Example 96, N-(5-(5-cyanothiophen-3-yl)-2-methylphenyl)-4-nitrobenzenesulfonamide] | 1 to 10 µM
33 | Cc1ccc(-c2ccc(C#N)cc2)cc1NS(=O)(=O)c1ccc(Cl)cc1 [Example 97, 4-chloro-N-(4′-cyano-4-methylbiphenyl-3-yl)benzenesulfonamide] | < 0.5 µM
34 | Cc1ccc(-c2ccc(C#N)s2)cc1NS(=O)(=O)c1ccc(O)cc1 [Example 98, N-(5-(5-cyanothiophen-2-yl)-2-methylphenyl)-4-hydroxybenzenesulfonamide] | 0.5 to 1 µM
35 | COc1cc(-c2ccc(C)c(NS(=O)(=O)c3ccc(C)c(F)c3)c2)ccc1C#N [Example 99, N-(4′-cyano-3′-methoxy-4-methylbiphenyl-3-yl)-3-fluoro-4-methylbenzenesulfonamide] | < 0.5 µM
36 | Cc1ccc(-c2ccc(C#N)cc2)cc1NS(=O)(=O)c1ccc(O)cc1 [Example 100, N-(4′-cyano-4-methylbiphenyl-3-yl)-4-hydroxybenzenesulfonamide] | 1 to 10 µM
37 | COc1cc(-c2ccc(C)c(NS(=O)(=O)c3ccc([N+](=O)[O-])cc3)c2)ccc1C#N [Example 101, N-(4′-cyano-3′-methoxy-4-methylbiphenyl-3-yl)-4-nitrobenzenesulfonamide] | 1 to 10 µM

Same assay, conditions: inhibition of cell proliferation, 72 h

Row | SMILES | EC50
38 | Cc1ccc(S(=O)(=O)Nc2cc(-c3occc3C#N)ccc2C)cc1 [Example 70, N-[5-(3-Cyo-furan-2-yl)-2-methyl-phenyl]-4-methyl-benzenesulfonamide] | < 0.5 µM
